Measurements as given in patent US20070014736A1, “Methods of delivering corticotroph-derived glycoprotein hormone” (priority 2005, published 2007).

Columns and labels:
lipolysis in mice = assay: Stimulation of lipolysis in vivo, serum glycerol and FFA; details: fasted mice, IP; CGH 300 μg/kg, CL 1 mg/kg
Experimental: CGH, the β3-adrenoreceptor agonist CL 316,243 (CL), and saline vehicle were examined for stimulation of lipolysis in mice following an overnight fast. […] Lipolysis was assessed as the percent change in serum glycerol or FFA over the 2 hour period. The serum glycerol and FFA for the vehicle groups decreased by 7%±9% and 24%±15%, respectively. The serum glycerol for the CGH group increased by 57%±20%; p=0.0254, and the FFA levels increased 25%±5%; p=0.0188.
C57 BL/6 male mice, age 19 weeks, were grouped to normalize weight (n=4 for each treatment; average group weight=37.8 g±0.4 g). Mice were housed individually for 18 hours prior to treatment, at which time food was withdrawn, with free access to water given. At approximately 8 a.m., the subjects were anesthetized with halothane and blood samples taken by retro-orbital eye bleed. The blood was allowed to clot, and the serum was separated by centrifugation and frozen for later analysis. Test substances were administered by IP injection in a volume of 0.1 ml, and the animals replaced in their cages for 2 hours with free access to water. At 2 hours, the mice were sacrificed and blood drawn by cardiac puncture.
For measuring free fatty acids in serum, the method previously described for measuring free fatty acids in conditioned media was followed, with the following modifications. Wako reagents A and B were reconstituted to 2× the recommended concentration. 75 μl of Wako reagent A were added to 5 μl of oleic acid standard plus 5 μl of water. 75 μl of Wako reagent A were added to 5 μl of serum plus 5 μl of methanol (to mirror the oleic acid standard conditions). The 96-well plates were incubated at 37° C. for 10 minutes. 150 μl of Wako reagent B were added to each well. The 96-well plates were incubated at 37° C. for 10 minutes. The 96-well plates were allowed to sit at room temperature for 5 minutes. The 96-well plates were centrifuged in a Beckman Coulter Allegra 6R centrifuge at 3250×g for 5 minutes to remove air bubbles. The absorbance at 530 nm was measured on the Wallac Victor2 Multilabel counter.
For measuring glycerol in serum, the method previously described for measuring glycerol in conditioned media was followed, with the modifications described below.
Sigma reagent A was reconstituted to 0.5× the recommended concentration. 200 μl of Sigma reagent A were added to 10 μl of glycerol standard. 200 μl of Sigma reagent A were added to 5 μl of serum plus 5 μI of water. The 96-well plates were incubated for 15 minutes at room temperature. The 96-well plates were centrifuged in a Beckman Coulter Allegra 6R centrifuge at 3250×g for 5 minutes to remove air bubbles. The absorbance at 530 nm was measured on the Wallac Victor2 Multilabel counter.

obese male ob/ob mice = assay: Chronic 28-day treatment of ob/ob mice; assay type: in vivo
Experimental: Summary: CGH was administered daily for 28 days to obese male ob/ob mice. Mice were also treated with vehicle saline and thyroxine. Data was obtained for food intake, blood glucose, serum insulin, serum lipids, and serum thyroid hormone levels. At sacrifice, animals were examined for changes in liver pathology, and gross histology. […] Evaluation of liver histology sections was performed to examine the effect of CGH-mediated lipolysis on liver steatosis.
11-week old male ob/ob mice were individually caged and given a standard lab chow (4% fat) with free access to food and water. Animals were assigned to a treatment group (n=7−8, average weight 54.3±0.3 g/group), kept on a 12 hour dark cycle (6 PM to 6 AM), and injected each day between 7 and 9 AM. Chow consumed by each animal was weighed twice weekly. All animals received treatments IP in an injection volume of 0.1 ml. CGH was administered at 250 μg/kg, dissolved in sterile saline. Thyroxine (T4) was administered at 1.5 μg/mouse for 4 days, reduced to 1 μg/mouse for 10 days, and returned to 1.5 μg/mouse for the next 14 days. The vehicle controls received sterile saline. TSH was obtained from Genzyme Pharmaceuticals (Thyrogen®, Catalog number 36778; Genzyme Corporation, Cambridge, Mass.), and T4 obtained from Calbiochem, Inc. (EMD Biosciences, catalog number 61205, San Diego, Calif.) All blood draws were performed by retro-orbital puncture under isoflurane anesthesia.
After 25 days of treatment as described above, blood was sampled from all treated animals, serum separated, and analyzed for total T4 by a commercially available kit (Biocheck, Burlingame, Calif.). After 25 days of treatment, the vehicle T4 levels were 5.14±0.08 μg/dl. The CGH-treated group had T4 levels of 7.25±1.2 μg/dl, and the thyroxine-treated group had T4 levels of 9.04±0.47 μg/dl.
Subject animals were fasted for 4 hours at the beginning of the light cycle, and serum was obtained at treatment day 25 under isoflurane anesthesia. Serum Glucose levels were determined with the Cholestech LDX blood analyzer (Cholestech Corporation, Hayward Calif.), and serum insulin levels by ELISA. Serum glucose levels for vehicle and thyroxine treated groups were 306±22 and 295±23 mg/dl, respectively. […] Serum insulin levels for the vehicle and thyroxine treated groups were 33.5±1.8 and 25.9±1.7 ng/ml, respectively.
Subject animals were fasted for 4 hours at the beginning of the light cycle, and serum was obtained at treatment day 25 under isoflurane anesthesia. Triglyceride and total cholesterol levels were determined with the Cholestech LDX blood analyzer. Serum triglyceride levels for the vehicle controls were 143.7±23 mg/dl. […] Total cholesterol levels in the vehicle-treated and thyroxine-treated groups were 198±13 and 194±15 mg/dl, respectively.
Liver sections were dissected from all treatment groups described above and mounted in paraffin following fixation with NBS-formalin. Sections were mounted and stained with hematotoxylin and eosin (H&E) for visualization of hepatic structural changes. The extent of liver steatosis was evaluated on a four-point scale, from 0 to 3, with zero displaying no signs of liver steatosis, and a […], represented pronounced macrovesicular and microvesicular steatosis. […] Average scores given to the groups were vehicle (4), thyroxine (3), and CGH (1.5). […] The CGH treated sections appear to have regained hallmarks of normal hepatocyte architecture in only 28 days of treatment, with areas containing hepatocytes without lipid-laden inclusions in the cytoplasm of the cell.

TSHR = assay: Binding of 125I-CGH and 125I-TSH to BHK cells expressing the TSHR; set-up: species or system murine or human; details: increasing amounts of unlabeled protein
Experimental: BHK cells expressing murine or human TSHRs were cultured in Dulbecco's Modified Eagle's Medium [DMEM (high glucose)] containing 5% fetal bovine serum, 1% Glutamax, 1% sodium pyruvate, 250 nM methotrexate, and Geneticin ( 1/100). […] Plates of cells were placed on ice and washed twice with 1.0-2.0 ml of ice-cold PBS. […] Specific binding was determined in the presence (nonspecific binding) and absence (total binding) of unlabeled rhCGH (25.0 μg/ml) or TSH (10 μg/ml). Binding reactions were terminated by removing the binding medium and the cell monolayers were washed three times with 1.0-2.0 ml of ice-cold PBS containing 1.0 mg/ml BSA and twice with 1.0-2.0 ml of ice cold albumin-free PBS. Cells were solubilized in 1.0 ml of 1.0N NaOH for 10 min at room temperature and cell-associated radioactivity was determined in a gamma counter. The measured radioactivity was normalized to cell number that was determined on plates of cells cultured in parallel. Binding data were analyzed by non-linear regression using Prizm 3.0 (GraphPad Software, San Diego, Calif.).

[1] = system: LPS-induced mild endotoxemia mouse model; assay: LPS-induced mild endotoxemia mouse model, serum cytokines; assay type: in vivo, mice; details: 2 mg/kg monomer, data not shown
Experimental: An in vivo experiment was designed to examine the effect of CGH in a mouse model of LPS-induced mild endotoxemia. This model mimics acute endotoxemia/sepsis by challenging mice with a low, non-lethal dose of bacterial endotoxin (lipopolysaccharide, LPS). Serum is collected at various timepoints (1-8 hours) after intraperitoneal LPS injection and analyzed for altered expression of a wide variety of pro- and anti-inflammatory cytokines and acute phase proteins that mediate the inflammatory response. The model provides a means to assess the potential anti-inflammatory effects of therapeutic candidates during a robust inflammatory response. To initially assess the model, we measured proinflammatory cytokines in a pilot experiment to collect reference data for the model.
C57B1/6 mice (Charles River Laboratories; 5 mice/group) were treated i.p. with PBS, 0.2 mg/kg CGH in PBS, or 2 mg/kg CGH in PBS 1 hour prior to LPS challenge. The mice were then challenged with 25 ug of LPS i.p. and bled at 1 hour and 4 hours after LPS injection. Serum was analyzed for TNF[…] (1 hour) and IL-6 (4 hours) levels by ELISA.
To determine if CGH would potentiate the effect of a sub-maximal dose of glucocorticoid, groups of 10 C57B1/6 mice each were treated i.p. with PBS, 0.15 or 1.5 mg/kg Dex, 2 mg/kg CGH, or a combination of CGH and low or high doses of Dex, 1 hour prior to injection of 25 ug LPS i.p. As shown in TABLE 3 (Expt #2), either 2 mg/kg CGH or 1.5 mg/kg Dex treatment alone (1 hour prior to LPS) caused a significant drop in serum TNFα levels at 1 hour, as observed in previous experiments. The effects of CGH administered in conjunction with Dex on inhibition of TNFα production were greater than either dose of Dex alone.

For `C[C@H](Cc1ccc2c(c1)OC(C(=O)[O-])(C(=O)[O-])O2)NC[C@H](O)c1cccc(Cl)c1.[Na+].[Na+]` [CL, CL 316,243, reference compound], the “percent change (increase) in serum FFA over 2 hours” value (lipolysis in mice) was 82%±16% and the “percent change (increase) in serum glycerol over 2 hours” value (lipolysis in mice) was 168%±23%.

`N[C@@H](Cc1cc(I)c(Oc2cc(I)c(O)c(I)c2)c(I)c1)C(=O)O` [thyroxine, reference compound] was tested, and the “liver steatosis average score” value (obese male ob/ob mice; H&E liver sections, 28 days, n=4) was 3, the “serum total T4 levels” value (obese male ob/ob mice; after 25 days of treatment) was 9.04 ± 0.47 µg/dL and the Serum glucose levels (obese male ob/ob mice; day 25, fasted 4 hours) was 295 ± 23 mg/dL. The Serum insulin levels (obese male ob/ob mice; day 25, fasted 4 hours) was 25.9 ± 1.7 ng/mL, the Serum triglyceride levels (obese male ob/ob mice; day 25, fasted 4 hours) was 198 ± 43 mg/dL and the Total cholesterol levels (obese male ob/ob mice; day 25, fasted 4 hours) was 194 ± 15 mg/dL. For the same molecule, the Food intake (obese male ob/ob mice; ob/ob mice, CGH 250 μg/kg IP daily, T4 1-1.5 μg/mouse) was 6.1±0.17 grams/day of chow.

B1: zsig51: alpha subunit of CGH, glycoprotein hormone alpha2, previously called Zsig51 (protein)
chain: QEAVIPGCHLHPFNVTVRSDRQGTCQGSHVAQACVGHCESSAFPSRYSVLVASGYRHNITSVSQCCTISGLKKVKVQLQCVGSRREELEIFTARACQCDMCRLSRY
B1 was tested, and the “reduction of the amount of 125I-CGH bound by unlabeled competitor” value (TSHR) was “neither unlabeled rhTSH (FIG. 1C) nor unlabeled rhGPHA2 nor rhGPHB5 (data not shown) reduced the amount of ^125I-CGH bound” and the “effect on serum TNFα or IL-6 levels” value [1] was “neither of these monomers had any effect”.

B2: zlut1: beta subunit of CGH, glycoprotein hormone beta 5, previously called Zlut1 (protein)
chain: ASSGNLRTFVGCAVREFTFLAKKPGCRGLRITTDACWGRCETWEKPILEPPYIEAHHRVCTYNETKQVTVKLPNCAPGVDPFYTYPVAIRCDCGACSTATTECETI
B2 was tested, and the “reduction of the amount of 125I-CGH bound by unlabeled competitor” value (TSHR) was “neither unlabeled rhTSH (FIG. 1C) nor unlabeled rhGPHA2 nor rhGPHB5 (data not shown) reduced the amount of ^125I-CGH bound” and the “effect on serum TNFα or IL-6 levels” value [1] was “neither of these monomers had any effect”.
